# Earlier results as cited in patent publication US8476254B2, “Methods for treating psychosis associated with interferson-α therapy” (Corcept Therapeutics, Inc., priority 2002, dated 2013).
# Details: % of the daily dose; in one study (Kawai)
smiles,measurement,value
"CC#C[C@]1(O)CC[C@H]2[C@@H]3CCC4=CC(=O)CCC4=C3[C@@H](c3ccc(N(C)C)cc3)C[C@@]21C [Mifepristone, 17-beta-hydroxy-11-beta-(4-dimethyl-aminophenyl)-17-alpha-(1-propynyl)-estra-4,9-dien-3-one]",fraction of the daily dose excreted in the urine,less than 0.5%
